# From patent US20120157401A1, “METHODS FOR TREATING NEUROFIBROMATOSIS” (PTC Therapeutics, Inc., priority 2009, published 2012)
# System: hypoxia-inducible endogenous VEGF expression
# Experiment: Hypoxia-inducible endogenous VEGF expression ELISA in HeLa cells, dose-response EC50 (Table 3)
# Type: cell-based, human
# Conditions: HeLa cells, hypoxic conditions (1% O2), 24-48 hours, VEGF in conditioned media; read-out: ELISA EC50
# How it was run: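 HeLa cells kept 24-48 h under hypoxia (1% O2, 5% CO2, nitrogen balance) with or without compound, e.g. seven concentrations; secreted VEGF in conditioned medium quantified by ELISA against a standard curve. Parallel Cell Titer Glo viability under identical conditions excludes cytotoxicity.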
row,SMILES,EC50 [µM]
1,Cc1ccc(C2c3[nH]c4ccc(Br)cc4c3CCN2C(=O)Oc2ccc(F)cc2)cc1 (stereo not shown) [Compound 403],< 0.008
2,O=C(Oc1ccc(F)cc1)N1CCc2c([nH]c3ccc(Br)cc23)C1c1ccc(C(F)(F)F)cc1 (stereo not shown) [Compound 426],< 0.008

# Same assay, conditions: Homo sapiens, HeLa, read-out: ELISA EC50 μM
row,SMILES,EC50 [µM]
1,CN1CCN(CCCCCCOc2ccc(C3c4[nH]c5ccc(Cl)cc5c4CCN3C(=O)Oc3ccc(F)cc3)cc2)CC1 (stereo not shown) [Compound 778],< 0.008
2,CC(C)NCC(O)COc1ccc(C2c3[nH]c4ccc(Cl)cc4c3CCN2C(=O)Oc2ccc(Cl)cc2)cc1 (stereo not shown) [Compound 977],0.04 to 0.2
3,CN1CCN(CCCOc2ccc(C3c4[nH]c5ccc(Cl)cc5c4CCN3C(=O)Oc3ccc(F)cc3)cc2)CC1 (stereo not shown) [Compound 993],< 0.008
4,CC(=O)N1CCN(CC(O)COc2ccc(C3c4[nH]c5ccc(Cl)cc5c4CCN3C(=O)Oc3ccc(Cl)cc3)cc2)CC1 (stereo not shown) [Compound 415],< 0.008
5,COCCN(C)CCCOc1cccc(C2c3[nH]c4ccc(Cl)cc4c3CCN2C(=O)Oc2ccc(F)cc2)c1 (stereo not shown) [Compound 1121],> 1
6,O=C(Oc1ccc(Cl)cc1)N1CCc2c([nH]c3ccc(Cl)cc23)C1c1ccc(OCCCN2CCC(O)CC2)cc1 (stereo not shown) [Compound 1537],< 0.008
7,CN1CCCC(COc2ccc(C3c4[nH]c5ccc(Cl)cc5c4CCN3C(=O)Oc3ccccc3Cl)cc2)C1 (stereo not shown) [Compound 976],0.04 to 0.2
8,COc1cc(C2c3[nH]c4ccc(Cl)cc4c3CCN2C(=O)Oc2ccccc2)ccc1OCCCN1CCOCC1 (stereo not shown) [Compound 1130],0.008 to 0.04
9,O=C(Oc1ccc(F)cc1)N1CCc2c([nH]c3ccc(Cl)cc23)C1c1ccc(OCCCCNCCO)cc1 (stereo not shown) [Compound 735],< 0.008
10,O=C(Oc1ccc(Cl)cc1)N1CCc2c([nH]c3ccc(Cl)cc23)C1c1ccc(OCCCN2CCCCC2)cc1 (stereo not shown) [Compound 433],< 0.008
11,O=C(Oc1ccc(Cl)cc1)N1CCc2c([nH]c3ccc(Cl)cc23)[C@@H]1c1ccc(OC[C@@H](O)CN2CCOCC2)cc1 [Compound 1071],< 0.008
12,O=C(Oc1ccc(F)cc1)N1CCc2c([nH]c3ccc(Cl)cc23)C1c1ccc(OCCCCN2CCCC2)cc1 (stereo not shown) [Compound 736],< 0.008
13,COCCN(CCOC)CC(O)COc1ccc(C2c3[nH]c4ccc(Cl)cc4c3CCN2C(=O)Oc2ccc(F)cc2)cc1 (stereo not shown) [Compound 913],< 0.008
14,COc1ccc(OC(=O)N2CCc3c([nH]c4ccc(Cl)cc34)C2c2ccc(OCCCN3CCOCC3)c(OC)c2)cc1 (stereo not shown) [Compound 1131],0.008 to 0.04
15,CN1CCN(Cc2cnc(Oc3ccc([C@H]4c5[nH]c6ccc(Cl)cc6c5CCN4C(=O)Oc4ccc(Cl)cc4)cc3)s2)CC1 [Compound 1661],< 0.008
16,CN1CCN(CCCOc2cccc(C3c4[nH]c5ccc(Cl)cc5c4CCN3C(=O)Oc3ccc(F)cc3)c2)CC1 (stereo not shown) [Compound 1113],0.2 to 1
17,O=C(Oc1ccc(Cl)cc1)N1CCc2c([nH]c3ccc(Cl)cc23)[C@@H]1c1ccc(OCCCNC(CO)(CO)CO)cc1 [Compound 1255],0.04 to 0.2
18,CN1CCN(CCCCCCOc2ccc(C3c4[nH]c5ccc(Cl)cc5c4CCN3C(=O)Oc3ccc(Cl)cc3)cc2)CC1 (stereo not shown) [Compound 788],0.008 to 0.04
19,O=C(Oc1ccc(F)cc1)N1CCc2c([nH]c3ccc(Cl)cc23)C1c1ccc(OCCCCN2CCOCC2)cc1 (stereo not shown) [Compound 738],< 0.008
20,COc1ccc(C2c3[nH]c4ccc(Cl)cc4c3CCN2C(=O)Oc2ccc(Cl)cc2)cc1OCCN1CCOCC1 (stereo not shown) [Compound 1095],0.2 to 1
21,O=C(Oc1ccc(Cl)cc1)N1CCc2c([nH]c3ccc(Cl)cc23)C1c1ccc(OCCCN2CCC(CO)C2)cc1 (stereo not shown) [Compound 1098],0.008 to 0.04
22,CN1CCN(CCCOc2ccc(C3c4[nH]c5ccc(Cl)cc5c4CCN3C(=O)Oc3ccc(Cl)cc3)cc2)CC1 (stereo not shown) [Compound 961],0.008 to 0.04
23,COc1cc(C2c3[nH]c4ccc(Cl)cc4c3CCN2C(=O)Oc2ccc(Cl)cc2)ccc1OCCN1CCOCC1 (stereo not shown) [Compound 1092],0.008 to 0.04
24,CN1CCC(Oc2ccc([C@H]3c4[nH]c5ccc(Cl)cc5c4CCN3C(=O)Oc3ccc(Cl)cc3)cc2)CC1 [Compound 1694],< 0.008
25,COc1ccc(OC(=O)N2CCc3c([nH]c4ccc(Cl)cc34)C2c2ccc(OCC(=O)NCCN3CCOCC3)cc2)cc1 (stereo not shown) [Compound 1026],0.008 to 0.04

# Same assay, conditions: Homo sapiens; HeLa cells, hypoxic conditions (1% O2), 24-48 hours, VEGF in conditioned media; read-out: ELISA EC50
row,SMILES,EC50 [µM]
1,Cc1cnc(NCCOc2ccc(C3c4[nH]c5ccc(Cl)cc5c4CCN3C(=O)Oc3ccc(Cl)cc3)cc2)s1 (stereo not shown) [#842],< 0.008
2,COCCOCCOc1ccc(C2c3[nH]c4ccc(Cl)cc4c3CCN2C(=O)Oc2ccc(F)cc2)cc1 (stereo not shown) [Compound 673],0.008 to 0.04
3,COCCOC(=O)Nc1ccc(C2c3[nH]c4ccc(Cl)cc4c3CCN2C(=O)Oc2ccc(Cl)cc2)cc1 (stereo not shown) [Compound 470],0.008 to 0.04
4,O=C(Oc1ccc(F)cc1)N1CCc2c([nH]c3ccc(Cl)cc23)C1c1ccc(OCC[C@H](O)CO)cc1 (stereo partly shown) [Compound 1179],< 0.008
5,Cc1ccc(OC(=O)N2CCc3c([nH]c4ccc(Cl)cc34)[C@@H]2c2ccc(OCCCn3cncn3)cc2)cc1 [Compound 1182],< 0.008
6,CC(CO)(CO)COc1ccc([C@H]2c3[nH]c4ccc(Cl)cc4c3CCN2C(=O)Oc2ccc(Cl)cc2)cc1 [Compound 1230],< 0.008
7,O=C(Oc1ccc(F)cc1)N1CCc2c([nH]c3ccc(Cl)cc23)C1c1ccc(OCCCCn2ccnc2)cc1 (stereo not shown) [Compound 742],< 0.008
8,COc1ccc(C2c3[nH]c4ccc(Cl)cc4c3CCN2C(=O)Oc2ccc(Cl)cc2)cc1OCCCn1cncn1 (stereo not shown) [Compound 1090],0.2 to 1
9,CC(=O)Oc1ccc(C2c3[nH]c4ccc(Cl)cc4c3CCN2C(=O)Oc2ccc(Cl)cc2)cc1 (stereo not shown) [Compound 463],0.008 to 0.04
10,COc1ccc(OC(=O)N2CCc3c([nH]c4ccc(Cl)cc34)C2c2ccc(S(C)(=O)=O)cc2)cc1 (stereo not shown) [Compound 359],0.04 to 0.2
11,CC(=O)NCC(O)CCOc1ccc([C@H]2c3[nH]c4ccc(Cl)cc4c3CCN2C(=O)Oc2ccc(Cl)cc2)cc1 (stereo partly shown) [Compound 1276],< 0.008
12,CC(C)(C)OC(=O)N1CCC(COc2ccc(C3c4[nH]c5ccc(Cl)cc5c4CCN3C(=O)Oc3ccc(Cl)cc3)cc2)CC1 (stereo not shown) [Compound 845],0.04 to 0.2
13,O=C(Oc1ccc(Cl)cc1)N1CCc2c([nH]c3ccc(Cl)cc23)C1c1ccc(OC(CO)CO)cc1 (stereo not shown) [Compound 1231],0.008 to 0.04
14,Cc1ccc(OC(=O)N2CCc3c([nH]c4ccc(Cl)cc34)[C@@H]2c2ccc(OCC[C@H](O)CO)cc2)cc1 [Compound 1292],< 0.008
15,O=C(Oc1ccc(Cl)cc1)N1CCc2c([nH]c3ccc(Cl)cc23)[C@@H]1c1ccc(OCCCn2ccnn2)cc1 [Compound 1068],< 0.008
16,Cc1ccc(OC(=O)N2CCc3c([nH]c4ccc(Cl)cc34)C2c2ccc(OCC[C@H]3COC(C)(C)O3)cc2)cc1 (stereo partly shown) [Compound 1170],< 0.008
17,COc1ccc(OC(=O)N2CCc3c([nH]c4ccc(Cl)cc34)C2c2ccc(OCCCn3ccnn3)cc2)cc1 (stereo not shown) [Compound 1031],< 0.008
18,O=C(Oc1ccc(F)cc1)N1CCc2c([nH]c3ccc(Cl)cc23)C1c1ccc(OCCCCCCCl)cc1 (stereo not shown) [Compound 723],< 0.008
19,O=C(Oc1ccc(Cl)cc1)N1CCc2c([nH]c3ccc(Cl)cc23)C1c1ccc(OCCCn2ccnn2)cc1 (stereo not shown) [Compound 417],< 0.008
20,COc1ccc(OC(=O)N2CCc3c([nH]c4ccc(Cl)cc34)[C@@H]2c2ccc(OCC[C@H](O)CO)cc2)cc1 [Compound 1300],< 0.008
21,O=C(Oc1ccc(Cl)cc1)N1CCc2c([nH]c3ccc(Cl)cc23)[C@@H]1c1ccc(O)cc1 [Compound 1160],< 0.008
22,COCC(=O)NCC(O)CCOc1ccc([C@H]2c3[nH]c4ccc(Cl)cc4c3CCN2C(=O)Oc2ccc(Cl)cc2)cc1 (stereo partly shown) [Compound 1278],< 0.008
23,COc1cc(C2c3[nH]c4ccc(Cl)cc4c3CCN2C(=O)Oc2ccc(Cl)cc2)ccc1OCCCCn1cncn1 (stereo not shown) [Compound 1088],0.008 to 0.04
24,O=C(Oc1ccccc1)N1CCc2c([nH]c3ccc(Br)cc23)C1c1ccccc1 (stereo not shown) [Compound 76],0.008 to 0.04
25,O=C(Oc1ccc(F)cc1)N1CCc2c([nH]c3ccc(Cl)cc23)C1c1ccc(OCCn2cccn2)cc1 (stereo not shown) [Compound 836],0.008 to 0.04
26,Cc1ccc(C2c3[nH]c4ccc(Br)cc4c3CCN2C(=O)Oc2ccc(F)cc2)cc1 (stereo not shown) [Compound 398],< 0.008

# Same assay, conditions: Homo sapiens; HeLa cells, hypoxic conditions (1% O2), VEGF ELISA of conditioned media; read-out: ELISA EC50
row,SMILES,EC50 [µM]
1,CC(=O)OCC1OC(n2cc(CCOc3ccc([C@H]4c5[nH]c6ccc(Cl)cc6c5CCN4C(=O)Oc4ccc(Cl)cc4)cc3)nn2)C(OC(C)=O)C(OC(C)=O)C1OC(C)=O (stereo partly shown) [Compound 1677],0.04 to 0.2
2,CCCOC(=O)NCC(O)CCOc1ccc([C@H]2c3[nH]c4ccc(Cl)cc4c3CCN2C(=O)Oc2ccc(C)cc2)cc1 (stereo partly shown) [Compound 1644],< 0.008
3,Cc1cc(NCCOc2ccc(C3c4[nH]c5ccc(Cl)cc5c4CCN3C(=O)Oc3ccc(Cl)cc3)cc2)on1 (stereo not shown) [Compound 1419],0.008 to 0.04
4,CC(=O)Oc1ccc([C@H]2c3[nH]c4ccc(Cl)cc4c3CCN2C(=O)Oc2ccc(Cl)cc2)cc1 [Compound 1538],< 0.008
5,N#CCOc1ccc([C@H]2c3[nH]c4ccc(Cl)cc4c3CCN2C(=O)Oc2ccc(Cl)cc2)cc1 [Compound 1669],< 0.008
6,CS(=O)(=O)NCC(O)CCOc1ccc([C@H]2c3[nH]c4ccc(Cl)cc4c3CCN2C(=O)Oc2ccc(Cl)cc2)cc1 (stereo partly shown) [Compound 1667],< 0.008
7,[H]/N=c1\sccn1CCOc1ccc(C2c3[nH]c4ccc(Cl)cc4c3CCN2C(=O)Oc2ccc(Cl)cc2)cc1 (stereo not shown) [Compound 1393],< 0.008
8,[H]/N=c1\scnn1CCOc1ccc(C2c3[nH]c4ccc(Cl)cc4c3CCN2C(=O)Oc2ccc(Cl)cc2)cc1 (stereo not shown) [Compound 1420],< 0.008
9,Cc1ccc(OC(=O)N2CCc3c([nH]c4ccc(Cl)cc34)[C@@H]2c2ccc(OCCC(O)CNC(=O)c3ccccn3)cc2)cc1 (stereo partly shown) [Compound 1641],< 0.008
10,O=C(NCC(O)COc1ccc(C2c3[nH]c4ccc(Cl)cc4c3CCN2C(=O)Oc2ccc(Cl)cc2)cc1)C1CC1 (stereo not shown) [Compound 1560],0.008 to 0.04
11,CCC(=O)NCC(O)CCOc1ccc([C@H]2c3[nH]c4ccc(Cl)cc4c3CCN2C(=O)Oc2ccc(Cl)cc2)cc1 (stereo partly shown) [Compound 1625],< 0.008
